Key:
[1] = Determination of percentage erosion of core tablet; format: physicochemical; details: 3 hours in water at 37° C.; for Percentage erosion (%) of compression-coated tablet containing Compound 1: core: 9 parts Compound 1 solid dispersion + 6 parts of the filler; for Percentage erosion (%) of compression-coated tablets containing acetaminophen: core: 5 parts acetaminophen + 10 parts of the filler
Experimental: A compression-coated tablet containing drug is made in accordance with the method of producing a timed-release compression-coated solid composition disclosed in the present invention, the tablet is moistened for 3 hours in water at 37° C., then the gelled part of the tablet is peeled off and the portion of the core tablet that has not eroded is removed. The core tablet is allowed to dry overnight in a dryer at 40° C. and weight is determined. The value obtained by subtracting dry weight from initial core tablet weight and dividing this by initial core weight is multiplied by 100 to calculate the percentage erosion.
The percentage erosion of the core tablet of both of the above-mentioned pharmaceutical preparations was determined in accordance with the previously described method of determining the percentage erosion of the core tablet.
Then 6 parts by weight of each filler were added to 9 parts by weight of the solid dispersion and mixed with a mortar and pestle. A core tablet of 150 mg per tablet with a diameter of 6.5 mm was obtained under compression force of 500 kg/punch using an oil press. Moreover, 10 parts by weight of each filler were separately added to 5 parts by weight acetaminophen (Yoshitomi Seiyaku) and mixed with a mortar and pestle and core tablets of 150 mg per tablet with a diameter of 6.5 mm were obtained under compression force of 500 kg/punch using an oil press. Furthermore, 75 mg polyethylene oxide (Polyox® WSR303) and 175 mg Macrogol 6000 were mixed with a mortar and pestle as the outer layer. […] This tablet was immersed for 3 hours in water at 37° C. and then the gelated part of the tablet was peeled off and the uneroded core was removed. The core was dried in a dryer overnight at 40° C. and then weighed. The percentage erosion of the core tablet was calculated from the dry weight and initial weight.

[2] = Solubility of each filler (amount of water needed to dissolve 1 g filler)
[3] = test system: CYP3A4; assay: Test Example 5: midazolam plasma concentration in dogs with concomitant Compound 1; details: Experiment 1, midazolam singular administration, oral 4 mg/dog, n=6
[4] = test system: CYP3A4; assay: Test Example 7: midazolam plasma concentration in dogs with concomitant ketoconazol; details: aqueous solution containing ketoconazol with midazolam

SMILES	Percentage erosion (%) of compression-coated tablet containing Compound 1 [1] [%]	Percentage erosion (%) of compression-coated tablets containing acetaminophen [1] [%]	further results
O=C1O[C@H]([C@@H](O)CO)C(O)=C1O [Ascorbic acid]	32.4		
N[C@@H](CC(=O)O)C(=O)O [Aspartic acid]	1.4		
O=C(O)CC(O)(CC(=O)O)C(=O)O [Citric acid]	60.3		
O=C(O)/C=C/C(=O)O [Fumaric acid]	2.0		Solubility of filler ([2]; Table 3): > 10 mL
OC[C@H]1O[C@@H](O[C@H]2[C@H](O)[C@@H](O)C(O)O[C@@H]2CO)[C@H](O)[C@@H](O)[C@H]1O (some centres unmarked) [Lactose]	24.0	7.6	
O=C(O)CC(O)C(=O)O (centres unmarked) [Malic acid]	75.0	79.3	Solubility of filler ([2]; Table 3): 2 mL; Solubility of filler ([2]; Table 4): 2 mL
Cc1ncc2n1-c1ccc(Cl)cc1C(c1ccccc1F)=NC2 [Midazolam, midazolam]			Mean AUC of midazolam plasma concentration [3]: 9.0 ± 6.0 ngh/ml
O=C(O)CCC(=O)O [Succinic acid]	19.2	12.8	
OC[C@H]1O[C@@](CO)(O[C@H]2O[C@H](CO)[C@@H](O)[C@H](O)[C@H]2O)[C@@H](O)[C@@H]1O [Sucrose]	48.4	56.1	Solubility of filler ([2]; Table 3): 1 mL; Solubility of filler ([2]; Table 4): 1 mL
O=C(O)C(O)C(O)C(=O)O (centres unmarked) [Tartaric acid]	65.7		
CC(=O)N1CCN(c2ccc(OCC3COC(Cn4ccnc4)(c4ccc(Cl)cc4Cl)O3)cc2)CC1 (centres unmarked) [ketoconazol]			increase of average midazolam AUC compared to midazolam singular administration [4]: ≤ 4 times
